From patent US10138247B2, “7-(morpholin-4-yl)pyrazole[1,5-A]pyrimidine derivatives as PI3 kinase inhibitors” (priority 2015, dated 2018)
pIC50: −log10 of the molar value. Like-named read-outs stand apart in the source and are kept apart here.

Assays:
PI3Kα = biological target: T1, PI3Kα (Homo sapiens, UniProt P42336); experiment: PI3K kinases inhibition in vitro (ADP-Glo), PI3Kα; assay type: biochemical
T1 construct: purchased Carna Biosciences
Experimental: (§1) Tested compounds were dissolved in 100% DMSO, and thus obtained solutions were serially diluted in 1× reaction buffer. Recombinant kinase was diluted in a reaction mixture comprising 5× reaction buffer, substrate (1 mM sodium diacetate 4,5-bisphosphate phosphatydylinositol (PIP2) solution in 40 mM Tris buffer), and water. To the wells in a 96-wells plate, 5 μl of compounds solutions and 15 μl of the kinase solution in the reaction mixture were added. To initiate interaction of tested chemical compounds with the enzyme, the plate was incubated for 10 minutes at suitable temperature in a plate thermostat with orbital shaking at 600 rpm. Negative control wells contained all above reagents except tested compound and kinase, and positive control wells contained all above reagents except tested compounds. Enzymatic reaction was initiated by adding 5 μl of 150 μM ATP solution, subsequently the plate was incubated for 1 hour at 25° C. or 30° C. (depending on PI3K isoform tested) in plate thermostat with orbital shaking of the plate contents at 600 rpm. Reaction conditions are presented below in Table 12.
(§2) Detection of ADP formed in the enzymatic reaction was then performed using ADP-Glo Kinase Assay (Promega). To the wells of a 96-well plate 25 μl of ADP-Glo Reagent were added, and the plate was incubated for 40 minutes at 25° C. in a plate thermostat with orbital shaking at 600 rpm. Then to the wells of 96-well plate 50 μl of Kinase Detection Reagent were added and the plate was incubated for 40 minutes at 25° C. in a plate thermostat with orbital shaking at 600 rpm. After incubation time, luminescence intensity in a well was measured by Victor Light luminometer (Perkin Elmer, Inc.).
(§3) IC50 values were determined on the basis of luminescence intensity measurements in wells containing tested compounds at different concentrations and in control wells. These values were calculated with Graph Pad 5.03 software by fitting the curve using non-linear regression. Each compound was tested at least in quadruplicates (4 wells) on two 96-well plates using at least 4 wells of each of the controls.

PI3Kβ = biological target: T2, PI3Kβ (Homo sapiens, UniProt P42338); experiment: PI3K kinases inhibition in vitro (ADP-Glo), PI3Kβ; assay type: biochemical
T2 construct: purchased Merck Millipore
T2 sequence (P42338 whole entry): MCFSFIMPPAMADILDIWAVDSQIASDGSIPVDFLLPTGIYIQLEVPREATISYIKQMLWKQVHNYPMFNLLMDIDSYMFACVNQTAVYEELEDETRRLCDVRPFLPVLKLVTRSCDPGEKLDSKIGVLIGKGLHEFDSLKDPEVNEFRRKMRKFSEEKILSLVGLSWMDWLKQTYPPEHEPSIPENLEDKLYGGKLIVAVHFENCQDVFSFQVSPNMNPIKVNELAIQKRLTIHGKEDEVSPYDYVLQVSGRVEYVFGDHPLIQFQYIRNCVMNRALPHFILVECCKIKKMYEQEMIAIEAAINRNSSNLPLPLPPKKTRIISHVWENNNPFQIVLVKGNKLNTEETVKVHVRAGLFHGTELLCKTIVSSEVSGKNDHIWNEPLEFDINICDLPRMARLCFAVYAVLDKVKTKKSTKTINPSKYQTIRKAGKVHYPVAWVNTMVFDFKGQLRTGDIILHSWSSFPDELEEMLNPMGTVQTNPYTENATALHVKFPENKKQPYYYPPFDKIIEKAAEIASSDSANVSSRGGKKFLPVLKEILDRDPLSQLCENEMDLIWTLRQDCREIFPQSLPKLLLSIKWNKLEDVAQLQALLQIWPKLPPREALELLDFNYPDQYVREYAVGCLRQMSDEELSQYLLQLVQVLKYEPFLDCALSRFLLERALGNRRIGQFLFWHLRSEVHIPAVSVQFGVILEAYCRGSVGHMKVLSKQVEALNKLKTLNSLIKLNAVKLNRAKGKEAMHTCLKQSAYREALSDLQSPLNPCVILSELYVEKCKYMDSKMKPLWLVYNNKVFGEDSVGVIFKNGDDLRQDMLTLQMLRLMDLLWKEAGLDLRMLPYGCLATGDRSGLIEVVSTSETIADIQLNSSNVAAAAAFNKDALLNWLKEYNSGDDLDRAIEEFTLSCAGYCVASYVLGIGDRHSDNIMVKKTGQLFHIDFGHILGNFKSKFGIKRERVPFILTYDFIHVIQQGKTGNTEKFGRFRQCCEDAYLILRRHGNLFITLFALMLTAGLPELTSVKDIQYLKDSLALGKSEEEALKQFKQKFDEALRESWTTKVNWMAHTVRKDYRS
T2 sequence (P27986 whole entry, further chain): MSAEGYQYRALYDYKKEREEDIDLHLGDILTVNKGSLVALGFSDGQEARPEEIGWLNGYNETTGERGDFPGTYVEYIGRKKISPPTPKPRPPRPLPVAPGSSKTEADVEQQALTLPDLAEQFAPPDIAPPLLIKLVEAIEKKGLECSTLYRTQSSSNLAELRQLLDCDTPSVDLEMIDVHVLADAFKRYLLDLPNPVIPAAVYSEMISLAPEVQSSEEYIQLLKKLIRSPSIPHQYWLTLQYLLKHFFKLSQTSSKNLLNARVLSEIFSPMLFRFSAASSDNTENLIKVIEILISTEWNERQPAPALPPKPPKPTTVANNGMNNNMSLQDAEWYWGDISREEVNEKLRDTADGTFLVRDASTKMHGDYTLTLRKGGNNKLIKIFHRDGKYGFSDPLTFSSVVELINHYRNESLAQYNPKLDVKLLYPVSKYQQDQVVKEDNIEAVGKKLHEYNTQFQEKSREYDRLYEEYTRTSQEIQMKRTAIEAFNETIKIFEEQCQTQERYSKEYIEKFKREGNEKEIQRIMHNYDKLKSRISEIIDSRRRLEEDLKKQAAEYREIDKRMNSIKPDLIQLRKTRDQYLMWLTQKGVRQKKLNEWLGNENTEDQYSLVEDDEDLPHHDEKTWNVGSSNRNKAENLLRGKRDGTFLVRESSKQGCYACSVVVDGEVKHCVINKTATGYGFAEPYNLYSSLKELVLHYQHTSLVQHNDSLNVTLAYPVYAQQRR
Experimental: as §1, §2, §3

PI3Kγ = biological target: T3, PI3Kγ (Homo sapiens, UniProt P48736); experiment: PI3K kinases inhibition in vitro (ADP-Glo), PI3Kγ; assay type: biochemical
T3 construct: purchased Merck Millipore
T3 sequence (P48736 whole entry): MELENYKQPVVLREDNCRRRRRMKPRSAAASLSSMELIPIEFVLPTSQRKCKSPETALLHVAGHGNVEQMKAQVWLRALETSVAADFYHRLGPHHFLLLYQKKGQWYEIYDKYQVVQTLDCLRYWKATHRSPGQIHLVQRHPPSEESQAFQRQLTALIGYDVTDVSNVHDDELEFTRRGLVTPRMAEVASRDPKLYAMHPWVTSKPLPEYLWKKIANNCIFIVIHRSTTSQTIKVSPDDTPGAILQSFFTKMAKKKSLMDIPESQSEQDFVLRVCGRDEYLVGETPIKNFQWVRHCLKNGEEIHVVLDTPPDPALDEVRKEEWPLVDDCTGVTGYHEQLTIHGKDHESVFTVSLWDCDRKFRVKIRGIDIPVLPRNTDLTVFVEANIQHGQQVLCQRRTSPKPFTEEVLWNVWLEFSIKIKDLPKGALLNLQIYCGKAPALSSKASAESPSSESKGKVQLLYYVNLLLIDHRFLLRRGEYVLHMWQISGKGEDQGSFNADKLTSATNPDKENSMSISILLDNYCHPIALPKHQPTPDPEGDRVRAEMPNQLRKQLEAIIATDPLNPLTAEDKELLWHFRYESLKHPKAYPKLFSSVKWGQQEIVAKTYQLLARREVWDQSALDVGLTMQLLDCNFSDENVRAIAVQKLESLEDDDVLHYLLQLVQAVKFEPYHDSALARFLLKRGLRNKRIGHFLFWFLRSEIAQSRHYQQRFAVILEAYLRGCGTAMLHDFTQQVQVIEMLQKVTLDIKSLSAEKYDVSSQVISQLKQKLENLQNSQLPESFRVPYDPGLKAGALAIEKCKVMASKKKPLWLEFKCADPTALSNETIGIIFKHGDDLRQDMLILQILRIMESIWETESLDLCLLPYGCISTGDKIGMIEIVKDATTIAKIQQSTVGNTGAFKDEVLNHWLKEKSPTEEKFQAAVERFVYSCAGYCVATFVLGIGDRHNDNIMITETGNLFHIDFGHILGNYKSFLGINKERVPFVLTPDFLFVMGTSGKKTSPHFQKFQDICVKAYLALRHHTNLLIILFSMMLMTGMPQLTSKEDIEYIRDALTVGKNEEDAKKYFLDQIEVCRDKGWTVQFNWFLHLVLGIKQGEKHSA
Experimental: as §1, §2, §3

PI3Kδ = biological target: T4, PI3Kδ (Homo sapiens, UniProt O00329); experiment: PI3K kinases inhibition in vitro (ADP-Glo), PI3Kδ; assay type: biochemical
T4 construct: purchased Merck Millipore
T4 sequence (O00329 whole entry): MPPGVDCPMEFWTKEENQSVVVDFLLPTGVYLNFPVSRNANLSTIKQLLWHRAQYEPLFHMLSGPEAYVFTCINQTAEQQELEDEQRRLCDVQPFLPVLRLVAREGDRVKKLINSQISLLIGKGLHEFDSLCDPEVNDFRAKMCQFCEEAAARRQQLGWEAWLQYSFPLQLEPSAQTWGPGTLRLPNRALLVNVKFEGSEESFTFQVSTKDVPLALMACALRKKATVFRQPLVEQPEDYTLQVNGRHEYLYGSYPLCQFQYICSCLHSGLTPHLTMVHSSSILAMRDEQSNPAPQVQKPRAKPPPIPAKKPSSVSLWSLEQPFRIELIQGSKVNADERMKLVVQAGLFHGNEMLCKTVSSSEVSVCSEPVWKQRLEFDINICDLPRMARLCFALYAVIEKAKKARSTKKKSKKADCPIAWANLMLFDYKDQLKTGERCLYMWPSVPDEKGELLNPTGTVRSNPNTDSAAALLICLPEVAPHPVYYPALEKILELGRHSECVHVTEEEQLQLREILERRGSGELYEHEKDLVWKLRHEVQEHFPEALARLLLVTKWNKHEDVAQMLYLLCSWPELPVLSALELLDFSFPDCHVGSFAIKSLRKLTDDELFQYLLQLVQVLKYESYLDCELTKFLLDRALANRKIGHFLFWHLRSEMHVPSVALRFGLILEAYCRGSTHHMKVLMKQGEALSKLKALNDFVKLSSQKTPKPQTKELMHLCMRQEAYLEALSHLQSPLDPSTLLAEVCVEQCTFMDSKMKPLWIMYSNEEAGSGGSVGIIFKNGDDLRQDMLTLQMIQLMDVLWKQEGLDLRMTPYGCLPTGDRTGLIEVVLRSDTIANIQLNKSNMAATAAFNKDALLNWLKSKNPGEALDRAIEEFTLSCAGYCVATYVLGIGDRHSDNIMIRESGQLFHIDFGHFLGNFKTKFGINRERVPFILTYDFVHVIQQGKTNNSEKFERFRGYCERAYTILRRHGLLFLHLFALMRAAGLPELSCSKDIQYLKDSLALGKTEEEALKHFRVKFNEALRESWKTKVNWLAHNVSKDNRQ
T4 sequence (P27986 whole entry, further chain): as the sequence (P27986 whole entry, further chain) above
Experimental: as §1, §2, §3

[1] = Pharmacokinetics testing in vivo, oral, rats; conditions: rat, Wistar rats, oral 30 mg/kg, serum
Experimental: Tests were performed on about 12 weeks old Wistar rats, weight 250-300 g. Rats were given orally tested compounds at 30 mg/kg m.c. Blood samples were collected from animals for analysis in 6 time points—30 min, 1 h, 2 h, 4 h, 7 h, and 12 h from administration of the compound. Blood was collected to tubes with K2EDTA and centrifuged for 15 min, 2000×g, at room temperature to separate serum. Collected serum samples were maintained at −20° C. before analysis. Each of the compounds was tested on a group of 5 animals.
Serum concentrations of tested compounds were determined by spectrophotometry. For each of tested compounds, time to reach maximum serum concentration (Tmax), maximum concentration (Cmax), and area under the curve (AUC) were determined.

[2] = averaged, recombinant kinase, 30° C., 1 h, PIP2 50 μM, read-out: PI3Kγ IC50
[3] = averaged, recombinant kinase, 25° C., 1 h, PIP2 30 μM, read-out: PI3Kδ IC50
[4] = averaged, recombinant kinase, 30° C., 1 h, PIP2 50 μM, read-out: PI3Kβ IC50

T1 sequence (P42336 whole entry): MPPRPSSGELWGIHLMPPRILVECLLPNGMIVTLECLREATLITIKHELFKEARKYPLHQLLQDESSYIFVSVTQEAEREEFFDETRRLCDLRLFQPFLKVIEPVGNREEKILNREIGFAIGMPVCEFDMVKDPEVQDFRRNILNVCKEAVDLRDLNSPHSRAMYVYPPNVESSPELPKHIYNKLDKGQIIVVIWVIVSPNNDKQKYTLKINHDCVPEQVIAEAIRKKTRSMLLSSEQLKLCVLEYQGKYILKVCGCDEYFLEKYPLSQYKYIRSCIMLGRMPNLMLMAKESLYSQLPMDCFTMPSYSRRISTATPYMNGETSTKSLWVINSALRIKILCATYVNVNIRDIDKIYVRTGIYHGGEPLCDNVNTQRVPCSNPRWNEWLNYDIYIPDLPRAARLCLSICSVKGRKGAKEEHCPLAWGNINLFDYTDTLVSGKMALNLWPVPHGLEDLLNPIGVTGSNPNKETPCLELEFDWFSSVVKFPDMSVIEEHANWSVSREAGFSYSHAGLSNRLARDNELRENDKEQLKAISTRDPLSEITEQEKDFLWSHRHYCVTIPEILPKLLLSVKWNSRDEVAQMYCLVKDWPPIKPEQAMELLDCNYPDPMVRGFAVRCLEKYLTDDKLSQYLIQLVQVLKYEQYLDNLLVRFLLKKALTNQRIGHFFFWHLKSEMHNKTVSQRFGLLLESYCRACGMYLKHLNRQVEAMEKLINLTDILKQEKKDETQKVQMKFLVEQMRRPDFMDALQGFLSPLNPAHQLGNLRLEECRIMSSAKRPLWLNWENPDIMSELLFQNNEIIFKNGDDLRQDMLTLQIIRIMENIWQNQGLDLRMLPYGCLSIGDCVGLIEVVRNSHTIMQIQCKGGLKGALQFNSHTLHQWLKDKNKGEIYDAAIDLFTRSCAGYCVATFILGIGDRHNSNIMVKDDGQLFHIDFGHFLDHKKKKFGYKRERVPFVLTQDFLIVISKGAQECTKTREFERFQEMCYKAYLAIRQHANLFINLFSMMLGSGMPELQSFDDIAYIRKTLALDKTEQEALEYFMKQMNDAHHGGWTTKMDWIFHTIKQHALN
T1 sequence (P27986 whole entry partner): as the sequence (P27986 whole entry, further chain) above

| Compound | pIC50 (PI3Kα) | pIC50 (PI3Kβ) | pIC50 (PI3Kγ) | pIC50 (PI3Kδ) | AUC [1] | Cmax [1] | Tmax [1] | pIC50 (PI3Kγ; [2]) | pIC50 (PI3Kδ; [3]) | pIC50 (PI3Kβ; [4]) |
| --- | --- | --- | --- | --- | --- | --- | --- | --- | --- | --- |
| CC(C)(O)C1CCN(Cc2cc3nc(-c4cccc5[nH]ccc45)cc(N4CCOCC4)n3n2)CC1 [Example 4, 2-((4-(2-hydroxypropan-2-yl)-piperidin-1-yl)methyl)-5-(1H-indol-4-yl)-7-(morpholin-4-yl)pyrazolo [1,5-a]pyrimidine] | < 6.00 | < 6.00 | < 6.00 | > 7.00 | 3580 ng·h/mL | 600 ng/mL | 2 h |  |  |  |
| CC(C)(C)N1CCN(Cc2cc3nc(-c4cccc5[nH]ccc45)cc(N4CCOCC4)n3n2)CC1 [Example 8, 2-((4-tert-butylpiperazin-1-yl)-methyl)-5-(1H-indol-4-yl)-7-(morpholin-4-yl)pyrazolo[1,5-a]-pyrimidine] | < 6.00 | < 6.00 | < 6.00 | > 7.00 | 1290 ng·h/mL | 200 ng/mL | 2 h |  |  |  |
| CC(C)(C)N1CCN(Cc2cc3nc(-c4c(F)ccc5[nH]ccc45)cc(N4CCOCC4)n3n2)CC1 [Example 11, 2-((4-tert-butylpiperazin-1-yl)-methyl)-5-(5-fluoro-1H-indol-4-yl)-7-(morpholin-4-yl)pyrazolo[1,5-a]-pyrimidine] | < 6.00 | < 6.00 |  |  | 1250 ng·h/mL | 300 ng/mL | 2 h | < 6.00 | > 7.00 |  |
| CC(C)(C)N1CCN(Cc2cc3nc(-n4c(C(F)F)nc5ccccc54)cc(N4CCOCC4)n3n2)CC1 [Example 50, 5-(2-(difluoromethyl)benzimidazol-1-yl)-2-((4-tert-butylpiperazin-1-yl)methyl)-7-(morpholin-4-yl)-pyrazolo[1,5-a]pyrimidine] | 6.00 to 7.00 |  |  |  | 5030 ng·h/mL | 900 ng/mL | 2 h | < 6.00 | > 7.00 | < 6.00 |
| FC(F)c1nc2ccccc2n1-c1cc(N2CCOCC2)n2nc(CN3CC(N4CCC(F)(F)CC4)C3)cc2n1 [Example 66, 5-(2-(difluoromethyl)benzimidazol-1-yl)-2-((3-(4,4-difluoropiperidin-1-yl)azetidin-1-yl)methyl)-7-(morpholin-4-yl)pyrazolo[1,5-a]-pyrimidine] | 6.00 to 7.00 |  |  |  |  |  |  | < 6.00 | > 7.00 | < 6.00 |
| Cc1c(CN2CCN(C(C)(C)C)CC2)nn2c(N3CCOCC3)cc(-n3c(C(F)F)nc4ccccc43)nc12 [Example 68, 5-(2-(difluoromethyl)benzimidazol-1-yl)-3-methyl-2-((4-tert-butylpiperazin-1-yl)methyl)-7-(morpholin-4-yl)pyrazolo[1,5-a]-pyrimidine] | 6.00 to 7.00 |  |  |  |  |  |  | < 6.00 | > 7.00 | < 6.00 |
| Cc1c(CN2CCC(C(C)(C)O)CC2)nn2c(N3CCOCC3)cc(-n3c(C(F)F)nc4ccccc43)nc12 [Example 69, 5-(2-(difluoromethyl)benzimidazol-1-yl)-3-methyl-2-((4-(2-hydroxy-propan-2-yl)piperidin-1-yl)methyl)-7-(morpholin-4-yl)pyrazolo[1,5-a]-pyrimidine] | 6.00 to 7.00 |  |  |  |  |  |  | < 6.00 | > 7.00 | < 6.00 |
| CC(C)(C)N1CCN(C(=O)c2cc3nc(-c4cccc5[nH]ccc45)cc(N4CCOCC4)n3n2)CC1 [Example 70, 2-(4-tert-butylpiperazin-1-ylcarbonyl)-5-(1H-indol-4-yl)-7-(morpholin-4-yl)pyrazolo[1,5-a]pyrimidine] | < 6.00 |  |  |  |  |  |  | < 6.00 | > 7.00 | < 6.00 |
| CC(C)(C)N1CCN(Cc2nn3c(N4CCOCC4)cc(-n4c(C(F)F)nc5ccccc54)nc3c2Cl)CC1 [Example 71, 5-(2-(difluoromethyl)benzimidazol-1-yl)-3-chloro-2-((4-tert-butylpiperazin-1-yl)methyl)-7-(morpholin-4-yl)pyrazolo[1,5-a]pyrimidine] | 6.00 to 7.00 |  |  |  |  |  |  | < 6.00 | > 7.00 | < 6.00 |
